# US20180284095A1, “BIOMARKERS ASSOCIATED WITH LSD1 INHIBITORS AND USES THEREOF” (Oryzon Genomics, S.A., priority 2015, published 2018)
# Target: T1, Human recombinant monoamine oxidase MAO-A (Homo sapiens, UniProt P21397)
# T1 construct: purchased Sigma Aldrich
# T1 sequence (P21397 1-527): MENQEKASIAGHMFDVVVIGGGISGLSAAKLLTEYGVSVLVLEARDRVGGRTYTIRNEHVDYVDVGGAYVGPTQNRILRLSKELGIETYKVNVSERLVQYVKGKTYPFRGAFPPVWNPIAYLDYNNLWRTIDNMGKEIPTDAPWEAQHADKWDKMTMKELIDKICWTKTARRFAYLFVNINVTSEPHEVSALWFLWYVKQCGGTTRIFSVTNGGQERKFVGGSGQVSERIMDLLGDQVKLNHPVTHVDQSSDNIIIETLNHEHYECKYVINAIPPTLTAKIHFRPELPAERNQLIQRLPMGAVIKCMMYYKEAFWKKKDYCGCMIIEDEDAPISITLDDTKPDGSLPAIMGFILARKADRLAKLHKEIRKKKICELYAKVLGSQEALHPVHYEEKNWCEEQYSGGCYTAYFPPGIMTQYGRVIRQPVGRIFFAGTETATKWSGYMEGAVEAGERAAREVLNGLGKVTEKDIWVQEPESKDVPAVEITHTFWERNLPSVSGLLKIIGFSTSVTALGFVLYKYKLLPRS
# Assay: MAO-A fluorescence-based kynuramine assay
# Assay type: biochemical
# From the text: LSD1 has a fair degree of structural similarity and amino acid identity/homology with the flavin-dependent amine oxidases monoamine oxidase A (MAO-A) and B (MAO-B). To determine the level of selectivity of a LSD1 inhibitor versus MAO-A and MAO-B, the inhibitory activity of a compound of interest against MAO-A and MAO-B can be tested using the method described below: Human recombinant monoamine oxidase proteins MAO-A and MAO-B were purchased from Sigma Aldrich.
# MAOs catalyze the oxidative deamination of primary, secondary and tertiary amines. In order to monitor MAO enzymatic activities and/or their inhibition rate by inhibitor(s) of interest, a fluorescence-based (inhibitor)-screening assay was set up. 3-(2-Aminophenyl)-3-oxopropanamine (kynuramine dihydrobromide, Sigma Aldrich), a non fluorescent compound was chosen as a substrate. Kynuramine is a non-specific substrate for both MAO-A and MAO-B activities. While undergoing oxidative deamination by MAO activities, kynuramine is converted into 4-hydroxyquinoline (4-HQ), a resulting fluorescent product.
# The monoamine oxidase activity was estimated by measuring the conversion of kynuramine into 4-hydroxyquinoline. Assays were conducted in 96-well black plates with clear bottom (Corning) in a final volume of 100 μL. The assay buffer was 100 mM HEPES, pH 7.5. Each experiment was performed in duplicate within the same experiment.
# Briefly, a fixed amount of MAO was incubated on ice for 15 minutes in the reaction buffer, in the absence and/or in the presence of at least eight 3-fold serial dilutions each. Clorgyline and Deprenyl (Sigma Aldrich) was used as a control for specific inhibition of MAO-A and MAO-B respectively.
# After leaving the enzyme(s) interacting with the inhibitor, KM of kynuramine was added to each reaction for MAO-B and MAO-A assay respectively, and the reaction was left for 1 hour at 37° C. in the dark. The oxidative deamination of the substrate was stopped by adding 50 μL of NaOH 2N. The conversion of kynuramine to 4-hydroxyquinoline, was monitored by fluorescence (excitation at 320 nm, emission at 360 nm) using a microplate reader (Infinite 200, Tecan). Arbitrary units were used to measure levels of fluorescence produced in the absence and/or in the presence of inhibitor.
# The maximum of oxidative deamination activity was obtained by measuring the amount of 4-hydroxyquinoline formed from kynuramine deamination in the absence of inhibitor and corrected for background fluorescence in the absence of MAO enzymes. The IC50 values of each inhibitor were calculated with GraphPad Prism Software.
row,Molecule,IC50 [µM]
1,"NC(=O)CN[C@H]1C[C@@H]1c1ccc(OCc2ccccc2)cc1 (racemic) [Compound 3, 2-(((trans)-2-(4-(benzyloxy)phenyl)cyclopropyl)amino)acetamide]",2.3
2,"CN1CCN(C(=O)CN[C@H]2C[C@@H]2c2ccc(OCc3ccccc3)cc2)CC1 (racemic) [Compound 4, 2-(((trans)-2-(4-(benzyloxy)phenyl)cyclopropyl)amino)-1-(4-methylpiperazin-1-yl)ethan-1-one]",4.6
3,"N[C@H]1CCN(CCN[C@H]2C[C@@H]2c2ccc(-c3cccc(C(F)(F)F)c3)cc2)C1 (racemic) [Compound 5, (S)-1-(2-(((trans)-2-(3′-(trifluoromethyl)-[1,1′-biphenyl]-4-yl)cyclopropyl)amino)ethyl)pyrrolidin-3-amine]",3.4
4,"(+) 5-((((trans)-2-(4-(benzyloxy)phenyl)cyclopropyl)amino)methyl)-1,3,4-oxadiazol-2-amine [Compound 2]",3.8
5,"(−) 5-((((trans)-2-(4-(benzyloxy)phenyl)cyclopropyl)amino)methyl)-1,3,4-oxadiazol-2-amine [Compound 1]",5.3
